PMC5532207, “Honokiol suppresses formyl peptide-induced human neutrophil activation by blocking formyl peptide receptor 1” (Scientific Reports, 2017)

Molecular target: T1, Formyl peptide receptor 1 (FPR1) (Homo sapiens, UniProt P21462)
T1 construct: human neutrophils; also hFPR1 (NM_002029)-transfected HEK-293 and differentiated THP-1 cells
T1 sequence (P21462 1-350): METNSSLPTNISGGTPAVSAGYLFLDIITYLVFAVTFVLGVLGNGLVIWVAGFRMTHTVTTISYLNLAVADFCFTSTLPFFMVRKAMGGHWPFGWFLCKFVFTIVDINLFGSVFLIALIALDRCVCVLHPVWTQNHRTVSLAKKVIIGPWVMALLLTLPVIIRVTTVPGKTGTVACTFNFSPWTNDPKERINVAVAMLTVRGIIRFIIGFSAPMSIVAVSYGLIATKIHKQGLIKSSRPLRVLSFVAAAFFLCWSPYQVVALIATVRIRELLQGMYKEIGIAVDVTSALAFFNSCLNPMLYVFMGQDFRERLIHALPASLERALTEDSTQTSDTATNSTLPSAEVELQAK
Experiment: displacement of fluorescent FPR1 ligand fNLFNYK on intact cells, flow cytometry
Format: cell-based

C=CCc1ccc(O)c(-c2ccc(O)c(CC=C)c2)c1 [H, Honokiol]
IC50: 7.44 ± 0.97 µM
